From patent publication US20260041744A1, “Methods for Treating Pompe Disease” (Amicus Therapeutics, Inc., priority 2022, published 2026)

What was measured:
[1] = tested on: adults with Pompe disease; experiment: Study ATB200-02: SGIC and PGIC; format: in vivo, human; conditions: 48 months follow-up
[2] = in vivo
Source text: Mean (SD) duration of treatment was 37.2 (14.48), 19.9 (4.13) and 36.9 (12.14) months in cohorts 1 (prior ERT 2-6 years), 4 (prior ERT ≥7 years) and 3 (ERT naive), respectively.
Mean (SD) duration of treatment was 46.3 (22.86) months.

[3] = in vivo; remark: listed apart in the source
Procedure: The ongoing open-label extension (OLE) of PROPEL (NCT04138277; ATB200-07) evaluates long-term safety and efficacy of cipa/mig. Outcomes include 6 minute walk distance (6MWD), forced vital capacity (FVC), creatine kinase (CK) and hexose tetrasaccharide (Hex4) levels and safety. Data are reported as change from the PROPEL baseline to OLE week 52 (104 weeks after the PROPEL baseline).

[4] = tested on: adults with Pompe disease; experiment: Study ATB200-02: plasma/serum creatine kinase (CK); conditions: for mean reduction from baseline in plasma CK: b512 prints a minus sign
Procedure: The change from baseline (CFBL) in 6MWD, % predicted sitting FVC, manual muscle test (MMT) and biomarkers—urine glucose tetrasaccharide (Hex4) and serum creatine kinase (CK)—were assessed at regular intervals.

[5] = tested on: adult subjects with Pompe disease; experiment: Pooled Studies ATB200-02/03/07: GSGC total score by exposure interval
Procedure: The pooled efficacy analyses presented within this section include the outlier (Pool 2). […] Pooled efficacy analyses excluding the outlier subject (Pool 2A) were also performed.
Note that a negative score indicates an improvement.

[6] = tested on: adult subjects with Pompe disease; experiment: Pooled Studies ATB200-02/03/07: MMT lower extremity score by exposure interval
[7] = tested on: subjects with late-onset Pompe disease (LOPD); conditions: systematic review, 368 LOPD subjects (Toscano and Schoser); cited from earlier work
[8] = Cohort 1, ambulatory ERT-experienced, N = 7
[9] = Cohort 2, non-ambulatory ERT-experienced, N = 5
[10] = Cohort 3, ambulatory ERT-naïve, N = 6
[11] = Cohort 4, ambulatory ERT-experienced, N = 6

ATB200/miglustat: two-component therapy: cipaglucosidase alfa (ATB200) administered in conjunction with miglustat (AT2221), a stabilizer of cipaglucosidase alfa
PGIC: Declined, % [1, 8]: (0) % | PGIC: Improved, % [1, 8]: (57.1) % | PGIC: No change, % [1, 8]: (42.9) % | SGIC; Overall physical wellbeing: Declined, % [1, 8]: (0) % | SGIC; Overall physical wellbeing: Improved, % [1, 8]: (85.7) % | SGIC; Overall physical wellbeing: No change, % [1, 8]: (14.3) % | PGIC: Declined, % [1, 9]: (0) % | PGIC: Improved, % [1, 9]: (60.0) % | PGIC: No change, % [1, 9]: (40.0) % | SGIC; Overall physical wellbeing: Declined, % [1, 9]: (0) % | SGIC; Overall physical wellbeing: Improved, % [1, 9]: (60.0) % | SGIC; Overall physical wellbeing: No change, % [1, 9]: (40.0) % | PGIC: Declined, % [1, 10]: (0) % | PGIC: Improved, % [1, 10]: (100.0) % | PGIC: No change, % [1, 10]: (0) % | SGIC; Overall physical wellbeing: Declined, % [1, 10]: (0) % | SGIC; Overall physical wellbeing: Improved, % [1, 10]: (83.3) % | SGIC; Overall physical wellbeing: No change, % [1, 10]: (16.7) % | PGIC: Declined, % [1, 11]: (0) % | PGIC: Improved, % [1, 11]: (33.3) % | PGIC: No change, % [1, 11]: (66.7) % | SGIC; Overall physical wellbeing: Declined, % [1, 11]: (16.7) % | SGIC; Overall physical wellbeing: Improved, % [1, 11]: (66.7) % | SGIC; Overall physical wellbeing: No change, % [1, 11]: (16.7) % | patients with nasopharyngitis and with diarrhea (most common TEAEs) [2]: 3 patients | patients who discontinued the OLE due to infusion-associated reactions [3]: Three | safety and tolerability up to 104 weeks [3]: No new safety signals were identified | Serum creatine kinase, % CFBL mean ([4]; Ambulatory ERT-experienced, 12 months): −20.5% | Serum creatine kinase, % CFBL mean ([4]; Ambulatory ERT-experienced, 24 months): −29.9% | Serum creatine kinase, % CFBL mean ([4]; Ambulatory ERT-experienced, 36 months): −30.0% | Serum creatine kinase, % CFBL mean ([4]; Ambulatory ERT-experienced, 48 months): −35.3% | Serum creatine kinase, % CFBL mean ([4]; Ambulatory ERT-naïve, 12 months): −50.6% | Serum creatine kinase, % CFBL mean ([4]; Ambulatory ERT-naïve, 24 months): −46.5% | Serum creatine kinase, % CFBL mean ([4]; Ambulatory ERT-naïve, 36 months): −50.7% | Serum creatine kinase, % CFBL mean ([4]; Ambulatory ERT-naïve, 48 months): −35.9% | mean reduction from baseline in plasma CK ([4]; Cohort 2 (non-ambulatory ERT-experienced), 12 months, listed as cipaglucosidase alfa plus miglustat): 20.8% | mean reduction from baseline in plasma CK ([4]; Cohort 2 (non-ambulatory ERT-experienced), 12 months, listed as cipaglucosidase alfa/miglustat): −20.8% | mean reduction from baseline in plasma CK ([4]; Cohort 2, 24 months, listed as cipaglucosidase alfa plus miglustat): 25.3% | mean reduction from baseline in plasma CK ([4]; Cohort 2, 24 months, listed as cipaglucosidase alfa/miglustat): −25.3% | mean reduction from baseline in plasma CK ([4]; Cohort 2, 36 months, listed as cipaglucosidase alfa plus miglustat): 27.1% | mean reduction from baseline in plasma CK ([4]; Cohort 2, 36 months, listed as cipaglucosidase alfa/miglustat): −27% | mean reduction from baseline in plasma CK ([4]; Cohort 2, 48 months, listed as cipaglucosidase alfa plus miglustat): 23.7% | mean reduction from baseline in plasma CK ([4]; Cohort 2, 48 months, listed as cipaglucosidase alfa/miglustat): −23.7% | patients with abnormal baseline CK who had normal CK levels at Month 48 ([4]; ERT-experienced (two of six)): 33.3% | patients whose plasma CK decreased numerically from baseline (n/N) ([4]; ERT-experienced, 12 months): 13/15 | patients whose plasma CK decreased numerically from baseline (n/N) ([4]; ERT-experienced, 24 months): 14/15 | patients whose plasma CK decreased numerically from baseline (n/N) ([4]; ERT-experienced, 36 months): 9/11 | patients whose plasma CK decreased numerically from baseline (n/N) ([4]; ERT-experienced, 48 months): 8/9 | CK status at Month 48 of patients with abnormal baseline CK ([4]; ERT-naïve (two of five abnormal at baseline)): remained abnormal at Month 48 | patients whose plasma CK decreased numerically from baseline (n/N) ([4]; ERT-naïve, 12 months): 6/6 | patients whose plasma CK decreased numerically from baseline (n/N) ([4]; ERT-naïve, 24 months): 6/6 | patients whose plasma CK decreased numerically from baseline (n/N) ([4]; ERT-naïve, 36 months): 5/5 | patients whose plasma CK decreased numerically from baseline (n/N) ([4]; ERT-naïve, 48 months): 4/5 | Serum creatine kinase, % CFBL mean ([4]; Non-ambulatory ERT-experienced, 12 months): −20.8% | Serum creatine kinase, % CFBL mean ([4]; Non-ambulatory ERT-experienced, 24 months): −25.3% | Serum creatine kinase, % CFBL mean ([4]; Non-ambulatory ERT-experienced, 36 months): −27.1% | Serum creatine kinase, % CFBL mean ([4]; Non-ambulatory ERT-experienced, 48 months): −23.7% | mean (SD) change from baseline in GSGC total score ([5]; exposure >15 to ≤24 months (n=87)): -0.86 (3.086) | mean (SD) change from baseline in GSGC total score ([5]; exposure >24 months (n=56)): −1.12 (3.586) | mean (SD) change from baseline in GSGC total score ([5]; exposure ≤15 months (n=123), negative = improvement): -0.51 (2.947) | mean (SD) change from baseline in MMT lower extremity score ([6]; exposure >15 to ≤24 months (n=101)): 1.73 (3.675) | mean (SD) change from baseline in MMT lower extremity score ([6]; exposure >24 months (n=65)): 1.98 (4.527) | mean (SD) change from baseline in MMT lower extremity score ([6]; exposure ≤15 months (n=135)): 1.36 (3.807)

alglucosidase alfa [reference compound]
subjects without initial improvement during treatment [7]: > 30%
